What was measured:
HCV RNA replicon ET = assay: HCV RNA replicon luciferase reporter assay, antiviral activity; type: cell-based; conditions: ET replicon cells, 72 h, LUC activity; for EC50: concentration reducing viral replication by 50%; for EC90: concentration reducing viral replication by 90%
[1] = system: human hepatoma cell line ET; assay: Cytotoxicity in the replicon cell line, colorimetric assay of cell numbers; conditions: ET cells, 72 h; for IC50: read-out: Cytotoxicity IC50, concentration inhibiting cell viability by 50%; for IC90: read-out: Cytotoxicity IC90, concentration inhibiting cell viability by 90%
From the text: Compounds were examined in the human hepatoma cell line ET (lub ubi heo/ET), a HCV RNA replicon containing a stable luciferase (LUC) reporter. The HCV RNA replicon ET contains the 5′ end of HCV (with the HCV Internal Ribosome Entry Site (IRES) and the first few amino acids of the HCV core protein) which drives the production of a firefly luciferase (LUC), ubiquitin, and neomycin phosphotransferase (NeoR) fusion protein. Ubiquitin cleavage releases the LUC and NeoR proteins. The EMCV IRES element controls the translation of the HCV […] NS3-NS5. The NS3 protein cleaves the HCV polyprotein to release the mature NS3, NS4A, NS4B, NS5A and NS5B proteins that are required for HCV replication. At the 3′ end of the replicon is the authentic 3′ NTR of HCV. The activity of the LUC reporter is directly proportional to HCV replication levels and positive-control antiviral compounds produce a reproducible antiviral response using the LUC endpoint.
The compounds were dissolved in DMSO at five half-log concentrations each, ranging from either 0.02 to 2.0 μM, 0.03 to 3 μM, […], or 1 to 100 μM. Subconfluent cultures of the ET line were plated out into 96 well plates dedicated for the analysis of cell numbers (cytotoxicity) or antiviral activity and the next day the compounds were added to the appropriate wells. The cells were processed 72 h later when the cells were still subconfluent. […] The activity of the LUC reporter is directly proportional to HCV RNA levels in the human cell line. The HCV-replicon assay was validated in parallel experiments using interferon-alpha-2b as a positive control.

HIV-1IIIB = assay: HIV MTS cytoprotection assay in CEM-SS cells; type: cell-based, human immunodeficiency virus-1; conditions: 6 days post-infection, concentration inhibiting virus replication by 50%
CEM-SS cells = assay: Compound cytotoxicity in the HIV MTS assay (cells plus drug only); type: cell-based, human; conditions: 50% inhibition of cell growth
Protocol: In this MTS cytoprotection assay, each experiment included cell control wells (cells only), virus control wells (cells plus virus), drug toxicity wells (cells plus drug only), drug colorimetric control wells (drug only) as well as experimental wells (drug plus cells plus virus). […] HIV-1RF was added to each well in a volume of 50 μL, the amount of virus determined to give approximately 90% cell killing at 6 days post-infection. At assay termination, assay plates were stained with the soluble tetrazolium-based dye MTS (CellTiter 96 Reagent, Promega) to determine cell viability and quantify compound toxicity. MTS is metabolized by the mitochondria enzymes of metabolically active cells to yield a soluble formazan product, providing a quantitative analysis of cell viability and compound cytotoxicity. The assay was validated in parallel experiments using Zidovudine (3′-azido-3′-deoxythymidine or AZT) as a positive control.

Work on `C/C=C/C[C@@H](C)[C@@H](O)[C@H]1C(=O)N[C@@H](CC)C(=O)N(C)[C@H](OCCN2CCOCC2)C(=O)N(C)[C@@H](CC(C)C)C(=O)N[C@@H](C(C)C)C(=O)N(C)[C@@H](CC(C)C)C(=O)N[C@@H](C)C(=O)N[C@H](C)C(=O)N(C)[C@@H](CC(C)C)C(=O)N(C)[C@@H](CC(C)C)C(=O)N(C)[C@@H](C(C)C)C(=O)N1C` [Compound L, 3-[2-(N-morpholine)ethoxy)cyclosporin] yielded an EC50 (HCV RNA replicon ET) of 280 nM, an EC90 (HCV RNA replicon ET) of 1250 nM and an IC50 [1] of 11500 nM. The IC90 [1] was over 20000 nM, the EC50 (HIV-1IIIB) was 1930 nM and the IC50 (CEM-SS cells) was 19500 nM.
`C/C=C/C[C@@H](C)[C@@H](O)[C@H]1C(=O)N[C@@H](CC)C(=O)N(C)[C@H](SCCN(C)C)C(=O)N(C)[C@@H](CC(C)(C)O)C(=O)N[C@@H](C(C)C)C(=O)N(C)[C@@H](CC(C)C)C(=O)N[C@@H](C)C(=O)N[C@H](C)C(=O)N(C)[C@@H](CC(C)C)C(=O)N(C)[C@@H](CC(C)C)C(=O)N(C)[C@@H](C(C)C)C(=O)N1C` [Compound O, 3-[(R)-2-(N,N-dimethylamino)ethylthio-Sar]-4-(gamma-hydroxymethylleucine)cyclosporin] gave an EC50 (HCV RNA replicon ET) of 122 nM, an EC90 (HCV RNA replicon ET) of 300 nM and an IC50 [1] of 13400 nM. The IC90 [1] was over 20000 nM, the EC50 (HIV-1IIIB) was 60 nM and the IC50 (CEM-SS cells) was 20000 nM.
`C/C=C/C[C@@H](C)[C@@H](O)[C@H]1C(=O)N[C@@H](CC)C(=O)N(C)C(OC)C(=O)N(C)[C@@H](CC(C)(C)O)C(=O)N[C@@H](C(C)C)C(=O)N(C)[C@@H](CC(C)C)C(=O)N[C@@H](C)C(=O)N[C@H](C)C(=O)N(C)[C@@H](CC(C)C)C(=O)N(C)[C@@H](CC(C)C)C(=O)N(C)[C@@H](C(C)C)C(=O)N1C` (some centres unmarked) [Compound T, 3-(methoxy)-4-(gamma-hydroxymethylleucine)cyclosporin] showed an IC50 [1] of over 2000 nM, an IC90 [1] of over 2000 nM and an IC50 (CEM-SS cells) of 18000 nM.
Work on `C/C=C/C[C@@H](C)[C@@H](O)[C@H]1C(=O)N[C@@H](CC)C(=O)N(C)[C@H](OC(C)C)C(=O)N(C)[C@@H](CC(C)C)C(=O)N[C@@H](C(C)C)C(=O)N(C)[C@@H](CC(C)C)C(=O)N[C@@H](C)C(=O)N[C@H](C)C(=O)N(C)[C@@H](CC(C)C)C(=O)N(C)[C@@H](CC(C)C)C(=O)N(C)[C@@H](C(C)C)C(=O)N1C` [D, 3-(isopropoxy)cyclosporin] yielded an EC50 (HCV RNA replicon ET) of 290 nM, an EC90 (HCV RNA replicon ET) of 1320 nM and an IC50 [1] of 17200 nM. For the same compound, the IC90 [1] was over 20000 nM, the EC50 (HIV-1IIIB) was 1360 nM and the IC50 (CEM-SS cells) was over 20000 nM.
Work on `C/C=C/C[C@@H](C)[C@@H](O)[C@H]1C(=O)N[C@@H](CC)C(=O)N(C)C(OCCCO)C(=O)N(C)[C@@H](CC(C)C)C(=O)N[C@@H](C(C)C)C(=O)N(C)[C@@H](CC(C)C)C(=O)N[C@@H](C)C(=O)N[C@H](C)C(=O)N(C)[C@@H](CC(C)C)C(=O)N(C)[C@@H](CC(C)C)C(=O)N(C)[C@@H](C(C)C)C(=O)N1C` (some centres unmarked) [H, 3-(3-hydroxypropoxy)cyclosporin] yielded an EC50 (HCV RNA replicon ET) of under 200 nM, an EC90 (HCV RNA replicon ET) of 370 nM and an IC50 [1] of over 20000 nM. For the same compound, the IC90 [1] was over 20000 nM, the EC50 (HIV-1IIIB) was 1380 nM and the IC50 (CEM-SS cells) was 13300 nM.
With `C/C=C/C[C@@H](C)[C@@H](O)[C@H]1C(=O)N[C@@H](CC)C(=O)N(C)C(SCC)C(=O)N(C)[C@@H](CC(C)C)C(=O)N[C@@H](C(C)C)C(=O)N(C)[C@@H](CC(C)C)C(=O)N[C@@H](C)C(=O)N[C@H](C)C(=O)N(C)[C@@H](CC(C)C)C(=O)N(C)[C@@H](CC(C)C)C(=O)N(C)[C@@H](C(C)C)C(=O)N1C` (some centres unmarked) [P, 3-ethylthiocyclosporin] the EC50 (HCV RNA replicon ET) was 230 nM, the EC90 (HCV RNA replicon ET) was 580 nM and the IC50 [1] was 6150 nM. It also gave an IC90 [1] of over 20000 nM, an EC50 (HIV-1IIIB) of 160 nM and an IC50 (CEM-SS cells) of 6150 nM.
Work on `C=CCS[C@@H]1C(=O)N(C)[C@@H](CC(C)C)C(=O)N[C@@H](C(C)C)C(=O)N(C)[C@@H](CC(C)C)C(=O)N[C@@H](C)C(=O)N[C@H](C)C(=O)N(C)[C@@H](CC(C)C)C(=O)N(C)[C@@H](CC(C)C)C(=O)N(C)[C@@H](C(C)C)C(=O)N(C)[C@@H]([C@H](O)[C@H](C)C/C=C/C)C(=O)N[C@@H](CC)C(=O)N1C` [Q, 3-propenylthiocyclosporin] yielded an EC50 (HCV RNA replicon ET) of 210 nM, an EC90 (HCV RNA replicon ET) of 620 nM and an IC50 [1] of 18900 nM. The IC90 [1] was over 20000 nM, the EC50 (HIV-1IIIB) was 230 nM and the IC50 (CEM-SS cells) was 18900 nM.
`C/C=C/C[C@@H](C)[C@@H](O)[C@H]1C(=O)N[C@@H](CC)C(=O)N(C)[C@H](SCCOC)C(=O)N(C)[C@@H](CC(C)C)C(=O)N[C@@H](C(C)C)C(=O)N(C)[C@@H](CC(C)C)C(=O)N[C@@H](C)C(=O)N[C@H](C)C(=O)N(C)[C@@H](CC(C)C)C(=O)N(C)[C@@H](CC(C)C)C(=O)N(C)[C@@H](C(C)C)C(=O)N1C` [R, 3-[(2-methoxy)ethylthio]cyclosporin] showed an EC50 (HCV RNA replicon ET) of 310 nM, an EC90 (HCV RNA replicon ET) of 590 nM and an IC50 [1] of 11100 nM. It also gave an IC90 [1] of over 20000 nM, an EC50 (HIV-1IIIB) of 500 nM and an IC50 (CEM-SS cells) of 17300 nM.
`C/C=C/C[C@@H](C)[C@@H](O)[C@H]1C(=O)N[C@@H](CC)C(=O)N(C)C(SC)C(=O)N(C)[C@@H](CC(C)(C)O)C(=O)N[C@@H](C(C)C)C(=O)N(C)[C@@H](CC(C)C)C(=O)N[C@@H](C)C(=O)N[C@H](C)C(=O)N(C)[C@@H](CC(C)C)C(=O)N(C)[C@@H](CC(C)C)C(=O)N(C)[C@@H](C(C)C)C(=O)N1C` (some centres unmarked) [S, 3-(methylthio)-4-(gamma-hydroxymethylleucine)cyclosporin] gave an EC90 (HCV RNA replicon ET) of 160 nM, an IC50 [1] of over 2000 nM and an IC90 [1] of over 2000 nM. The EC50 (HIV-1IIIB) was 90 nM and the IC50 (CEM-SS cells) was 14000 nM.
Compound `C=CCO[C@@H]1C(=O)N(C)[C@@H](CC(C)(C)O)C(=O)N[C@@H](C(C)C)C(=O)N(C)[C@@H](CC(C)C)C(=O)N[C@@H](C)C(=O)N[C@H](C)C(=O)N(C)[C@@H](CC(C)C)C(=O)N(C)[C@@H](CC(C)C)C(=O)N(C)[C@@H](C(C)C)C(=O)N(C)[C@@H]([C@H](O)[C@H](C)C/C=C/C)C(=O)N[C@@H](CC)C(=O)N1C` [U, 3-(prop-2-ene-1-oxy)-4-(gamma-hydroxymethylleucine)cyclosporin] has an EC50 (HCV RNA replicon ET) of 90 nM, an EC90 (HCV RNA replicon ET) of 450 nM and an IC50 [1] of over 2000 nM. The IC90 [1] was over 2000 nM, the EC50 (HIV-1IIIB) was 110 nM and the IC50 (CEM-SS cells) was 13400 nM.
`C/C=C/C[C@@H](C)[C@@H](O)[C@H]1C(=O)N[C@@H](CC)C(=O)N(C)C(OCCOC)C(=O)N(C)[C@@H](CC(C)(C)O)C(=O)N[C@@H](C(C)C)C(=O)N(C)[C@@H](CC(C)C)C(=O)N[C@@H](C)C(=O)N[C@H](C)C(=O)N(C)[C@@H](CC(C)C)C(=O)N(C)[C@@H](CC(C)C)C(=O)N(C)[C@@H](C(C)C)C(=O)N1C` (some centres unmarked) [X, 3-[2-(methoxy)ethoxy]-4-(gamma-hydroxymethylleucine)cyclosporin] showed an EC50 (HCV RNA replicon ET) of 480 nM, an EC90 (HCV RNA replicon ET) of 1500 nM and an IC50 [1] of over 2000 nM. The IC90 [1] was over 2000 nM, the EC50 (HIV-1IIIB) was 1000 nM and the IC50 (CEM-SS cells) was over 20000 nM.
In the case of `C/C=C/C[C@@H](C)[C@@H](O)[C@H]1C(=O)N[C@@H](CC)C(=O)N(C)[C@H](OCCCOC)C(=O)N(C)[C@@H](CC(C)(C)O)C(=O)N[C@@H](C(C)C)C(=O)N(C)[C@@H](CC(C)C)C(=O)N[C@@H](C)C(=O)N[C@H](C)C(=O)N(C)[C@@H](CC(C)C)C(=O)N(C)[C@@H](CC(C)C)C(=O)N(C)[C@@H](C(C)C)C(=O)N1C` [Y, 3-[3-(methoxy)propoxy]-4-(gamma-hydroxymethylleucine)cyclosporin], the EC50 (HCV RNA replicon ET) is reported as 300 nM, the EC90 (HCV RNA replicon ET) is reported as 950 nM and the IC50 [1] is reported as over 2000 nM. It also gave an IC90 [1] of over 2000 nM, an EC50 (HIV-1IIIB) of 520 nM and an IC50 (CEM-SS cells) of over 20000 nM.

Reference: patent US7718767B2, “3-ether and 3-thioether substituted cyclosporin derivatives for the treatment and prevention of hepatitis C infection” (Scynexis, Inc., priority 2006, dated 2010)
